According to patent US20240208997A1, “CYCLIC BENZIMIDAZOLE DERIVATIVES AS CGAS INHIBITORS” (Boehringer Ingelheim International GmbH, priority 2022, published 2024):

Tests used:
[1] = system: IFN induction in virus-stimulated THP1 cells; assay: Human cGAS cell assay, virus-stimulated THP1-Dual cells (THP1(vir) IC50); type: cell-based; conditions: THP-1, 18 h, Table 1, baculovirus-stimulated THP1-Dual cells, Lucia luciferase, 18 h, read-out: THP(vir) IC50
Description: (§1) 6.2 Method: Human cGAS Cell Assay and cGAMP Stimulated Counter Cell Assay (THP1(vir) IC50 and THP1(cGAMP) IC50)
THP1-Dual™ cells (InvivoGen #thpd-nfis) expressing IRF dependent Lucia luciferase reporter were used as basis for both assays. For the detection of cellular cGAS activity cells were stimulated by a baculovirus (pFastbac-1, Invitrogen, no coding insert) infection that delivers the cGAS enzyme stimulating double-stranded DNA (measurement of THP1(vir) IC50).
(§2) Pathway activity was monitored by measuring the Lucia luciferase activity induced by either DNA stimulated cGAS enzyme activity (measurement of THP1(vir) IC50) or by cGAMP directly (measurement of THP1(cGAMP) IC50, counter assay).
(§3) Compounds were delivered in 10 mM DMSO solution, serially diluted and transferred to the 384 well assay plate (Greiner #781201) using an Echo acoustic dispenser. Typically, 8 concentrations were used with the highest concentration at 10 μM in the final assay volume followed by ^˜1:5 dilution steps. DMSO concentration was set to 1% in the final assay volume. The 384 well assay plate contained […] (column 1-22), and DMSO in column 23 and 24.
(§4) Cells, cultivated according to manufacturer conditions, were harvested by centrifugation at 300 g/10 min and were then resuspended and diluted to 1.66E5 cells/ml in fresh cell culture medium (RPMI 1640 (Gibco #A10491-01), 10% FCS (Gibco #10500), 1× GlutaMax (Gibco #35050-061), 1× Pen/Strep solution (Gibco #15140-122), 100 μg/ml Normocin (InvivoGen #ant-nr), 100 μg/ml Zeocin (InvivoGen #ant-zn), 10 μg/ml Blasticidin S (Life Technologies #A11139-03)). The baculovirus solution was then added 1:200 (have varied according to virus batch) to the cells (measurement of THP1(vir) IC50).
(§5) 30 μL of the cell/virus-mix were added to each well of the compound plate from column 1-23 via MultiDrop Combi dispenser (5000 cells/well). In column 24, 30 μl/5000 cells/well without virus were added as a low control.
(§6) The plates were then incubated for 18 h at 37° C. in a humidified incubator.
(§7) Following that, 15 μL of QuantiLuc detection reagent (InvivoGen #rep-qlcg5) were added to each well using a MultiDrop Combi. Measurement was done immediately after the addition using an EnVision reader (US-luminescence read-mode).
(§8) Data Evaluation and Calculation:
(§9) For data evaluation and calculation, the measurement of the low control was set as 0% control and the measurement of the high control was set as 100% control. The IC50 values were calculated using the standard 4 parameter logistic regression formula. Calculation: [y=(a−d)/(1+(x/c)^b)+d], a=low value, d=high value; x=conc M; c=IC50 M; b=slope

[2] = system: IFN induction in cGAMP-stimulated THP1 cells; assay: cGAMP stimulated counter cell assay in THP1-Dual cells (THP1(cGAMP) IC50); type: cell-based, human; conditions: Table 1; for IC50: Homo sapiens, THP-1, counter assay, 10 μM cGAMP stimulation, read-out: THP(cGAMP) IC50; for Ratio THP(cGAMP) IC50/THP(vir) IC50: selectivity for cGAS-inhibition
Description: as §1
For the counter assay, cells were stimulated by cGAMP (SigmaAldrich #SML1232) to activate the identical pathway independent and directly downstream of cGAS (measurement of THP1(cGAMP) IC50).
as §2, §3, §4, §5, §6, §7, §8, §9

## C[C@H]1CN2CC[C@@H]1n1c(nc3ccccc31)O[C@H]1C[C@@H](C(=O)O)N(C1)c1nc(nc3c1oc1cc(Cl)ccc13)C(F)(F)CCCOCC2=O [Example 1.22]
[1]
  IC50: 1.5 nM
[2]
  IC50: > 10000 nM
  Ratio THP(cGAMP) IC50/THP(vir) IC50: >6579

## O=C(O)[C@@H]1C[C@H]2CN1c1nc(nc3c1oc1ccccc13)COCCCCCC(=O)N1CCC(CC1)n1c(nc3cccc(F)c31)O2 [Example 5.01]
[1]
  IC50: 38 nM
[2]
  IC50: > 10000 nM
  Ratio THP(cGAMP) IC50/THP(vir) IC50: >260

## O=C(O)[C@@H]1C[C@H]2CN1c1nc(nc3c1oc1ccccc13)OCCCCOC(=O)N1CCC(CC1)n1c(nc3ccccc31)O2 [Example 11.01]
[1]
  IC50: 180 nM
[2]
  IC50: > 1000 nM
  Ratio THP(cGAMP) IC50/THP(vir) IC50: >56

## C[C@H]1CN2CC[C@@H]1n1c(nc3cc(Cl)ccc31)O[C@H]1C[C@@H](C(=O)O)N(C1)c1nc(nc3c1oc1ccccc13)CCOCCCC2=O [Example 1.02]
[1]
  IC50: 2.8 nM
[2]
  IC50: > 10000 nM
  Ratio THP(cGAMP) IC50/THP(vir) IC50: >3557

## O=C(O)[C@@H]1C[C@H]2CN1c1nc(nc3c1oc1ccccc13)COCCCC(F)(F)C(=O)N1CCC(CC1)n1c(nc3ccccc31)O2 [Example 8.01]
[1]
  IC50: 39 nM
[2]
  IC50: > 10000 nM
  Ratio THP(cGAMP) IC50/THP(vir) IC50: 255

## C[C@H]1CN2CC[C@@H]1n1c(nc3ccccc31)O[C@H]1C[C@@H](C(=O)O)N(C1)c1nc(nc3c1oc1ccccc13)CCOCCCC2=O [Example 1.05]
[1]
  IC50: 2.9 nM
[2]
  IC50: > 10000 nM
  Ratio THP(cGAMP) IC50/THP(vir) IC50: >3448

## Cc1cccc2c1nc1n2[C@H]2CCN(C[C@@H]2C)C(=O)CCCCCC(F)(F)c2nc(c3oc4ccccc4c3n2)N2C[C@H](C[C@H]2C(=O)O)O1 [Example 1.28]
[1]
  IC50: 15 nM
[2]
  IC50: 4000 nM
  Ratio THP(cGAMP) IC50/THP(vir) IC50: 267

## C[C@@H]1CCCCC(=O)N2CCC(CC2)n2c(nc3ccccc32)O[C@H]2C[C@@H](C(=O)O)N(C2)c2nc1nc1c2oc2ccccc21 [Example 1.26]
[1]
  IC50: 5.5 nM
[2]
  IC50: 15000 nM
  Ratio THP(cGAMP) IC50/THP(vir) IC50: 2687

## C[C@H]1CCCCC(=O)N2CCC(CC2)n2c(nc3ccccc32)O[C@H]2C[C@@H](C(=O)O)N(C2)c2nc1nc1c2oc2ccccc21 [Example 1.25]
[1]
  IC50: 8 nM
[2]
  IC50: > 10000 nM
  Ratio THP(cGAMP) IC50/THP(vir) IC50: >1251

## C[C@@H]1CN2CC[C@H]1n1c(nc3cc(Cl)ccc31)O[C@H]1C[C@@H](C(=O)O)N(C1)c1nc(nc3c1oc1ccccc13)CCOCCCC2=O [Example 1.01]
[1]
  IC50: 39 nM
[2]
  IC50: > 10000 nM
  Ratio THP(cGAMP) IC50/THP(vir) IC50: >253

## C[C@H]1CN2CC[C@@H]1n1c(nc3ccccc31)O[C@H]1C[C@@H](C(=O)O)N(C1)c1nc(nc3c1oc1ccccc13)C(F)(F)COCCCC2=O [Example 4.01]
[1]
  IC50: 0.69 nM
[2]
  IC50: > 10000 nM
  Ratio THP(cGAMP) IC50/THP(vir) IC50: >14442

## C[C@H]1CN2CC[C@@H]1n1c(nc3ccccc31)O[C@H]1C[C@@H](C(=O)O)N(C1)c1nc(nc3c1oc1ccccc13)C(F)(F)CCCCC(F)(F)C2=O [Example 1.17]
[1]
  IC50: 13 nM
[2]
  IC50: 6600 nM
  Ratio THP(cGAMP) IC50/THP(vir) IC50: 519

## C[C@@H]1CC(=O)N2CCC(CC2)n2c(nc3ccccc32)O[C@H]2C[C@@H](C(=O)O)N(C2)c2nc(nc3c2oc2ccccc23)CCCO1 [Example 7.01]
[1]
  IC50: 150 nM
[2]
  IC50: 3500 nM
  Ratio THP(cGAMP) IC50/THP(vir) IC50: 23

## CC1CCc2nc(c3oc4ccccc4c3n2)N2C[C@H](C[C@H]2C(=O)O)Oc2nc3cc(Cl)ccc3n2[C@H]2CCN(C[C@@H]2C)C(=O)CCO1 (stereo partly shown) [Example 1.20]
[1]
  IC50: 13 nM
[2]
  IC50: > 10000 nM
  Ratio THP(cGAMP) IC50/THP(vir) IC50: >773

## C[C@H]1CN2CC[C@@H]1n1c(nc3cc(Cl)ccc31)O[C@H]1C[C@@H](C(=O)O)N(C1)c1nc(nc3c1oc1ccccc13)COCCOCC2=O [Example 1.11]
[1]
  IC50: 3.6 nM
[2]
  IC50: ≥ 10000 nM
  Ratio THP(cGAMP) IC50/THP(vir) IC50: >2907

## C[C@H]1CN2CC[C@@H]1n1c(nc3cc(F)ccc31)O[C@H]1C[C@@H](C(=O)O)N(C1)c1nc(nc3c1oc1ccccc13)C(F)(F)CCCCC(F)(F)C2=O [Example 1.18]
[1]
  IC50: 37 nM
[2]
  IC50: 10000 nM
  Ratio THP(cGAMP) IC50/THP(vir) IC50: 270

## C[C@H]1CN2CC[C@@H]1n1c(nc3ccccc31)O[C@H]1C[C@@H](C(=O)O)N(C1)c1nc(nc3c1oc1ccccc13)CCCC(C)(C)CCC2=O [Example 1.23]
[1]
  IC50: 190 nM
[2]
  IC50: 9500 nM
  Ratio THP(cGAMP) IC50/THP(vir) IC50: 51

## C[C@H]1CN2CC[C@@H]1n1c(nc3ccc(Cl)cc31)O[C@H]1C[C@@H](C(=O)O)N(C1)c1nc(nc3c1oc1ccccc13)C(F)(F)CCCCCC2=O [Example 1.13]
[1]
  IC50: 4.9 nM
[2]
  IC50: 11000 nM
  Ratio THP(cGAMP) IC50/THP(vir) IC50: 2251

## C[C@H]1CN2CC[C@@H]1n1c(nc3ccccc31)O[C@H]1C[C@@H](C(=O)O)N(C1)c1nc(nc3c1oc1ccccc13)CCOCCOC2=O (mixture of isomers) [Example 12.01]
[1]
  IC50: 240 nM
[2]
  IC50: > 10000 nM
  Ratio THP(cGAMP) IC50/THP(vir) IC50: >42

## O=C(O)[C@@H]1C[C@H]2CN1c1nc(nc3c1oc1ccccc13)CCCOCC(=O)N1CCC(CC1)n1c(nc3ccccc31)O2 [Example 9.01]
[1]
  IC50: 400 nM

## C[C@H]1CN2CC[C@@H]1n1c(nc3cc(Cl)ccc31)O[C@H]1C[C@@H](C(=O)O)N(C1)c1nc(nc3c1oc1ccccc13)C(F)(F)OCCCCC2=O [Example 6.01]
[1]
  IC50: 3.1 nM
[2]
  IC50: > 10000 nM
  Ratio THP(cGAMP) IC50/THP(vir) IC50: >2225

## C[C@@H]1CN2CC[C@H]1n1c(nc3ccccc31)O[C@H]1C[C@@H](C(=O)O)N(C1)c1nc(nc3c1oc1ccccc13)CCCCCOC2=O [Example 10.01]
[1]
  IC50: 180 nM
[2]
  IC50: 8200 nM
  Ratio THP(cGAMP) IC50/THP(vir) IC50: 45

## C[C@H]1CN2CC[C@@H]1n1c(nc3cc(Cl)ccc31)O[C@H]1C[C@@H](C(=O)O)N(C1)c1nc(nc3c1oc1cc(F)ccc13)CCCCOCC2=O [Example 1.09]
[1]
  IC50: 4.3 nM
[2]
  IC50: > 10000 nM
  Ratio THP(cGAMP) IC50/THP(vir) IC50: 4305

## C[C@H]1CN2CC[C@@H]1n1c(nc3ccccc31)O[C@H]1C[C@@H](C(=O)O)N(C1)c1nc(nc3c1oc1ccccc13)CCCCCOC2=O [Example 10.02]
[1]
  IC50: 64 nM
[2]
  IC50: > 10000 nM
  Ratio THP(cGAMP) IC50/THP(vir) IC50: >156

## C[C@H]1CN2CC[C@@H]1n1c(nc3ccccc31)O[C@H]1C[C@@H](C(=O)O)N(C1)c1nc(nc3c1oc1ccccc13)CCCCCC2=O [Example 1.19]
[1]
  IC50: 40 nM
[2]
  IC50: 11000 nM
  Ratio THP(cGAMP) IC50/THP(vir) IC50: 277

## C[C@H]1CN2CC[C@@H]1n1c(nc3ccccc31)O[C@H]1C[C@@H](C(=O)O)N(C1)c1nc(nc3c1oc1cc(Cl)ccc13)C(F)(F)CCCCCC2=O [Example 1.16]
[1]
  IC50: 9.7 nM
[2]
  IC50: 11000 nM
  Ratio THP(cGAMP) IC50/THP(vir) IC50: 1134

## Cc1cccc2c1nc1n2[C@@H]2CCN(C[C@H]2C)C(=O)CCCCCC(F)(F)c2nc(c3oc4ccccc4c3n2)N2C[C@H](C[C@H]2C(=O)O)O1 [Example 1.27]
[1]
  IC50: 180 nM
[2]
  IC50: 6000 nM
  Ratio THP(cGAMP) IC50/THP(vir) IC50: 33

## C[C@H]1CN2CC[C@@H]1n1c(nc3ccccc31)O[C@H]1C[C@@H](C(=O)O)N(C1)c1nc(nc3c1oc1ccccc13)CCCCCN(C)C2=O [Example 13.01]
[1]
  IC50: 500 nM
[2]
  IC50: 7300 nM
  Ratio THP(cGAMP) IC50/THP(vir) IC50: 15

## C[C@H]1CN2CC[C@@H]1n1c(nc3cc(Cl)ccc31)O[C@H]1C[C@@H](C(=O)O)N(C1)c1nc(nc3c1oc1cc(Cl)ccc13)CCOCCCC2=O [Example 1.08]
[1]
  IC50: 2.4 nM
[2]
  IC50: 9500 nM
  Ratio THP(cGAMP) IC50/THP(vir) IC50: 3928

## O=C(O)[C@@H]1C[C@H]2CN1c1nc(nc3c1oc1ccccc13)CCOCCCC(=O)N1CCC(CC1)n1c(nc3cc(F)ccc31)O2 [Example 1.03]
[1]
  IC50: 110 nM
[2]
  IC50: > 10000 nM
  Ratio THP(cGAMP) IC50/THP(vir) IC50: >90

## C[C@H]1CN2CC[C@@H]1n1c(nc3ccccc31)O[C@H]1C[C@@H](C(=O)O)N(C1)c1nc(nc3c1oc1cc(Cl)ccc13)CCOCCCC2=O [Example 1.07]
[1]
  IC50: 6.5 nM
[2]
  IC50: > 10000 nM
  Ratio THP(cGAMP) IC50/THP(vir) IC50: >1541
